Reference: US20110052551A1, “CARDIAC MYOCYTE MORPHOGENIC COMPOSITIONS AND METHODS OF USE THEREFOR” (priority 2008, published 2011)
“Also recorded” adds a separate entry of the source.

Key:
Type in all cases: cell-based, mice
[1] = tested on: JNK phosphorylation in BMMNCs; test: Western immunoblotting of Wnt11-induced JNK phosphorylation; details: 1 μM, 3 hours in Wnt11-CM
Experimental: Assessment of Wnt signaling. To investigate non-canonical signaling pathways, freshly isolated unfractionated BMMNCs were cultured in Wnt11-CM or in empty vector (control) medium in the presence or absence of 1 μM of the PKC inhibitor bisindolylmaleimide I (BIM, Sigma) for 3 hours followed by harvest and assessment of JNK phosphorylation by Western immunoblotting (see below and FIG. 9B). The expression of cardiac-specific gene expression in unfractionated BMMNCs was assessed by qRT-PCR following culture for 3 days in Wnt11-CM and empty vector (control) medium with and without PKC (BIM; 1 μM) and JNK (SP600125; 10 μM; Sigma) inhibitors (see FIG. 9B). Expression of Wnt3a and β-catenin were measured by qRT-PCR to investigate the effect of control, Wnt3a medium, and Wnt11-CM on canonical signaling.
(§1) Western immunoblotting and quantitative ELISA. […] Gel transfer efficiency was recorded carefully by making photocopies of membranes dyed with reversible Ponceau staining; gel retention was determined by Coomassie blue staining. […] Immunoreactive bands were visualized with horseradish peroxidase-conjugated anti-goat and anti-rabbit IgG (Santa Cruz Biotechnology) using an ECL detection kit (New England Nuclear, Billerica, Mass., United States of America), quantified by densitometry, and normalized GAPDH. […]

unfractionated BMMNCs [2] = test: qRT-PCR of Wnt11-induced cardiac gene expression with PKC and JNK inhibitors; details: 3 days in Wnt11-CM, BIM 1 μM, SP600125 10 μM
Experimental: Assessment of mRNA expression by quantitative real-time RT-PCR (qRT-PCR). All qRT-PCR reagents and primers were purchased from Qiagen Inc. (Valencia, Calif., United States of America). Prior to mRNA extraction, cell number was determined and calculated by Trypan blue exclusion. cDNA was generated from freshly isolated (designated as baseline) and cultured unfractionated BMMNCs at days 0, 3, 7, and 21 (see FIG. 9A) using QUANTISCRIPT REVERSE TRANSCRIPTASE™ (Qiagen Inc., Valencia, Calif., United States of America) contained in RT master mix of Cell to cDNA kits according to manufacturer's protocol. […]
To avoid amplification of contaminating DNA, all validated qRT-PCR primers were designed to cross […] sequences within the cDNA to be amplified. Quantitative qRT-PCR analysis was performed in an ABI Prism 7900H sequence detection system (Applied Biosystems, Foster City, Calif.) using QUANTITECT™ SYBR® Green Real Time PCR kits. Each 50 μl qRT-PCR reaction contained 2 μl (approximately 50 ng) of cDNA, 5 μl of 1× primer mix (containing approximately 500 nM sense and anti-sense primers) and 25 μl of 2× QUANTITECT™ SYBR® Green master mix. […]
The PCR product level is calculated from the threshold cycle (Ct). That is, the amplification cycle number at which exponential PCR-generated gene-specific fluorescence is first detected (above a fixed threshold level). […]

unfractionated BMMNCs [3] = test: cTnI ELISA in cultured BMMNCs; details: for effect on Wnt11-induced expression of cTnI: 21 days of culture in Wnt11-CM
Experimental: Assessment of cardiac differentiation. For quantitative assessment of cardiomyocytic differentiation, an average of 2400 cells/plate were counted. Multiple fields from all 4 quarters of the plate were systematically evaluated. The number of cells expressing cardiac-specific intracellular contractile proteins in each field was counted; the total number of cells was calculated based on nuclear staining with DAPI. In addition, cells were concomitantly stained with markers specific for various non-cardiac lineages (skeletal muscle [myogenin]; neural [nestin, GFAP]; myeloid [CD11b, Gr-1]; and others; Zuba-Surma et al., 2006). Cells were counted as positive when they were positive for cardiac-specific contractile proteins and negative for all of these markers. Thus, a rigorous method was employed to assess cardiac differentiation in vitro. The percentage of cells differentiating into cardiomyocytes was calculated as the number of cells positive for proteins divided by the total number of nuclei in the field. These experiments were performed in triplicate. As a confirmatory measure, the expression of cardiac-specific troponin I (cTnI) was determined by ELISA as described hereinbelow following culture in Wnt11-CM with and without the Wnt inhibitor Dickkopf-1 (Dkk-1; see FIG. 9C).
as §1, with “ELISA. Western analysis was performed as described in Guo et al., 1998; Brandon et al., 2000; Li et al., 2003; and Li et al., 2006.” for “ELISA.”, “GAPDH. In all samples, the content of target protein was expressed as a percentage of the controls (untreated), normalized to GAPDH.” for “GAPDH.”

Row | Molecule | Wnt11-induced JNK phosphorylation [1] | Wnt11-induced cardiac gene expression (unfractionated BMMNCs [2]) | Wnt11-induced cardiac gene expression (unfractionated BMMNCs [2]; listed as bisindolylmaleimide I) | effect on Wnt11-induced expression of cTnI (unfractionated BMMNCs [3]) | effect on Wnt11-induced expression of cTnI (unfractionated BMMNCs [3]; listed as Dickkopf-1) | effect on cTnI expression by itself (unfractionated BMMNCs [3]; 21 days of culture, without Wnt11-CM)
1 | CN(C)CCCn1cc(C2=C(c3c[nH]c4ccccc34)C(=O)NC2=O)c2ccccc21 [BIM, bisindolylmaleimide I] | completely blocked | abolished; also recorded: no expression | completely abolished |  |  | 
2 | Dkk-1: soluble inhibitor of canonical signaling that blocks Wnt-signaling at the cell surface (protein, UniProt O94907 32-266, looked up) Dickkopf-related protein 1: TLNSVLNSNAIKNLPPPLGGAAGHPGSAVSAAPGILYPGGNKYQTIDNYQPYPCAEDEECGTDEYCASPTRGGDAGVQICLACRKRRKRCMRHAMCCPGNYCKNGICVSSDQNHFRGEIEETITESFGNDHSTLDGYSRRTTLSSKMYHTKGQEGSVCLRSSDCASGLCCARHFWSKICKPVLKEGQVCTKHRRKGSHGLEIFQRCYCGEGLSCRIQKDHHQASNSSRLHTCQRH |  |  |  | reduced | attenuated | little effect
